Experimental data published in patent US20030190325A1, “Novel peroxiredoxin defense system from mycobacterium tuberculosis” (priority 2002, published 2003).

T1: Lpd (porcine) (Sus scrofa, UniProt P09623)
T1 sequence (P09623 36-509): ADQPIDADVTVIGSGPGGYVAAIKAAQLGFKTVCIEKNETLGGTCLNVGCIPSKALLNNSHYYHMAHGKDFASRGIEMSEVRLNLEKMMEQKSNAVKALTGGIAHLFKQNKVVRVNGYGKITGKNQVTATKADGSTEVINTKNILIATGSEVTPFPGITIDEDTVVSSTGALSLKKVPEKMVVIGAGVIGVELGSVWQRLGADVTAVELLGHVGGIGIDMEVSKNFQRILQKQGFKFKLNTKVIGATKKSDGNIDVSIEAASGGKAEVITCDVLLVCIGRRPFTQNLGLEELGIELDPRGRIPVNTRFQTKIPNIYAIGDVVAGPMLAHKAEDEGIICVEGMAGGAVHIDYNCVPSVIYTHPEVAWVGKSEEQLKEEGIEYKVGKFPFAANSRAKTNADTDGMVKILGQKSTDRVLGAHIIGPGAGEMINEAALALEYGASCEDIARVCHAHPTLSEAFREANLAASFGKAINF

T2: SucB (Mycobacterium tuberculosis, UniProt P9WIS7)
T2 construct: Lpd and SucB ORFs were amplified by PCR from M. tuberculosis H37Rv genomic DNA; made in house; host or cells: E. coli BL21(DE3), pET11c, culture supplemented with lipoic acid
T2 sequence (P9WIS7 1-553): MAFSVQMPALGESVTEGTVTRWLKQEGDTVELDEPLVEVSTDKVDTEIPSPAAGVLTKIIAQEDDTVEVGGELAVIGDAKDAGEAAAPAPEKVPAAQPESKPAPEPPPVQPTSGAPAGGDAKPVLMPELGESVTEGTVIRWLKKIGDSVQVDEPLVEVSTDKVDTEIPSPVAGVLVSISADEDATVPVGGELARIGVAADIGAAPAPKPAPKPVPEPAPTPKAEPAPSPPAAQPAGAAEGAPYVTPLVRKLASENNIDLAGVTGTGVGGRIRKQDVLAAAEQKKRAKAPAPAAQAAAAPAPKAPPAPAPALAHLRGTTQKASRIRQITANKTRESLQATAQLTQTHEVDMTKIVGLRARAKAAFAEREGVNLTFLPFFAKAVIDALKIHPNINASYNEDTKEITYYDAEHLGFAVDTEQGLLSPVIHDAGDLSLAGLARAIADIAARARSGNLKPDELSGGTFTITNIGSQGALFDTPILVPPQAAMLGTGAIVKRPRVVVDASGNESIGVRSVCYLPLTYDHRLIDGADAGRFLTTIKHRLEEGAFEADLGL


Key:
Lpd (porcine) = biological target: T1, Lpd (porcine); test: Counter-test on porcine Lpd; format: biochemical; parameters: key: “NE” means no effect; settings: at 10 μM
αKG-DH (porcine) = test: Counter-test on porcine αKG-DH; format: biochemical; parameters: key to αKG-DH (porcine): “NE” means no effect; settings: at 50 μM
SucB = biological target: T2, SucB; test: Inhibition constant for the enzyme identified as target: SucB; format: biochemical
Source text: Table 2 lists the molecular structures of eleven chemical compounds that were identified from the above screen. The first three compounds in Table 2 were further identified as to which of the 3 enzymes (AhpD, Lpd, SucB) each inhibited.

TR (bovine) = test: Counter-test on bovine TR; format: biochemical; parameters: key: “NE” means no effect; settings: at 10 μM
[1] = biological target: the molecule itself; test: X-ray crystal structure at 2.0 Å, homotrimer

Molecule | Lpd (porcine) (Lpd (porcine)) | Macs Viabil. (50 μM) (mouse macrophages) | αKG-DH (porcine) (αKG-DH (porcine)) | Ki (SucB) [µM] | TR (bovine) (TR (bovine)) | αKG-DH (porcine) inhibition (αKG-DH (porcine)) | binding result [1]
O=C(O)CN1C(=O)/C(=C\c2ccc(-c3cccc(Cl)c3Cl)o2)SC1=S [3229-2113] | NE at 10 μM | 91% ±5% | NE at 50 μM | 6 | NE at 10 μM | – | –
Cc1cc(C)cc(/N=C2/NC(=O)/C(=C\c3cc(Br)c(O)c([N+](=O)O)c3)S2)c1 [2368-0687] | NE at 10 µM | 70% ±13% *clu- sters | – | – | NE at 10 μM | 5-10% inhi- bition at 50 μM | –
O=C(O)CCN1C(=O)/C(=C\c2ccc(-c3cccc(C(F)(F)F)c3)o2)SC1=S [2556-0286] | NE at 10 μM | 80% ±1% | NE at 50 μM | 3 | NE at 10 μM | – | –
AhpD (protein encoded by the ahpD gene, Rv2429, of Mycobacterium tuberculosis) (enzyme, Homotrimer in the crystal; also called recombinant AhpD) MSIEKLKAALPEYAKDIKLNLSSITRSSVLDQEQLWGTLLASAAATRNPQVLADIGAEATDHLSAAARHAALGAAAIMGMNNVFYRGRGFLEGRYDDLRPGLRMNIIANPGIPKANFELWSFAVSAINGCSHCLVAHEHTLRTVGVDREAIFEALKAAAIVSGVAQALATIEALSPS | – | – | – | – | – | – | binds
